Measured values reported in patent US20110045101A1, “FUNGICIDAL SUBSTITUTED AZOLES” (E.I. Du Pont De Nemours and Company, priority 2009, published 2011).
Marks after values point to notes of the source that are not given here.

Assays:
Assay type in all cases: in vivo
Septoria nodorum = assay: Test F: wheat glume blotch on wheat seedlings, sprayed the day before inoculation, visual disease rating; conditions: 100 = 100% disease control; for pest or weed control at 200 ppm: Parastagonospora nodorum, 264 h
Outline: (§1)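 Ratings reflect a 200 ppm spray (≈500 g/ha) unless marked as 40 ppm. Plants were sprayed to run-off. The spray suspension was acetone/purified water 50/50 containing 250 ppm Trem 014, after first dissolving compound in acetone at 3% of final volume.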

Alternaria solani = assay: Test D: tomato early blight, sprayed the day before inoculation, visual disease rating; conditions: 100 = 100% disease control; for pest or weed control at 200 ppm: Alternaria solani, 168 h
Outline: as §1

Septoria tritici = assay: Test G: wheat leaf blotch on wheat seedlings, sprayed the day before inoculation, visual disease rating; conditions: 100 = 100% disease control; for pest or weed control at 200 ppm: Zymoseptoria tritici, 504 h
Outline: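 Spray to run-off, 200 ppm (≈500 g/ha; starred = 40 ppm), acetone/water 50/50 + 250 ppm Trem® 014. Spore inoculation +1 d. 24° C saturated 48 h → 20° C 19 d. Visual rating.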

[1] = test system: Puccinia recondita f. sp. tritici; assay: Test I: wheat leaf rust on wheat seedlings, sprayed the day before inoculation, visual disease rating; conditions: 100 = 100% disease control; for pest or weed control at 200 ppm: Puccinia recondita, 168 h
Outline: as §1

Botrytis cinerea = assay: Test C: tomato Botrytis on tomato seedlings, sprayed the day before inoculation, visual disease rating; conditions: 100 = 100% disease control; for pest or weed control at 200 ppm: Botrytis cinerea, 120 h
Outline: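 Disease scored by eye on tomato seedlings inoculated with Botrytis cinerea a day after treatment. Treatment was a run-off spray at 200 ppm (equivalent to 500 g/ha), or 40 ppm where marked, in acetone/water carrying 250 ppm Trem 014.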

[2] = test system: Puccinia recondita f. sp. tritici; assay: Test H: wheat leaf rust, test suspension sprayed after inoculation of wheat seedlings, visual disease rating; conditions: 100 = 100% disease control; for pest or weed control at 200 ppm: Puccinia recondita, 96 h
Outline: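 Wheat seedlings inoculated with P. recondita spores, held 24 h saturated at 20 °C, then 2 days in growth chamber at 20 °C; compound suspension (acetone/water with Trem 014) sprayed to run-off afterwards. Rated visually; 200 ppm (≈500 g/ha) unless marked *, which denotes 40 ppm.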

[3] = test system: Erysiphe graminis f. sp. tritici; assay: Test J: wheat powdery mildew on wheat seedlings, sprayed the day before inoculation, visual disease rating; conditions: 100 = 100% disease control; for pest or weed control at 200 ppm: Blumeria graminis, 168 h
Outline: as §1

[4] = 200 ppm, 0 = no control relative to controls
[5] = 40 ppm (marked *), 0 = no control

| SMILES | Test F disease control rating (Septoria nodorum; 40 ppm (marked *)) | Test D disease control rating (Alternaria solani; 40 ppm (marked *)) | Test G disease control rating (Septoria tritici; 40 ppm (marked *)) | Test I disease control rating ([1]; 40 ppm (marked *)) | Test C disease control rating (Botrytis cinerea; 40 ppm (marked *)) | Test H disease control rating ([2]; 40 ppm (marked *)) | Test J disease control rating [3, 4] [%] | Test F disease control rating (Septoria nodorum; [4]) [%] | Test D disease control rating (Alternaria solani; [4]) [%] | Test G disease control rating (Septoria tritici; [4]) [%] | Test I disease control rating [1, 4] [%] | Test C disease control rating (Botrytis cinerea; [4]) [%] | Test H disease control rating [2, 4] [%] | further results |
| --- | --- | --- | --- | --- | --- | --- | --- | --- | --- | --- | --- | --- | --- | --- |
| COc1cc(F)c(-c2c(Br)nc(Br)n2-c2ccc(C)cc2)c(F)c1 [compound 524] | 60* % | 100* % | 98* % | 99* % | 99* % | 85* % | 97 | – | – | – | – | – | – | – |
| COC(=O)c1ccc(-n2cnc(Cl)c2-c2c(F)cccc2F)cc1 [compound 614] | 0* % | 0* % | 92* % | 28* % | 89* % | 0* % | – | – | – | – | – | – | – | Test J disease control rating ([3]; 40 ppm (marked *)): 0* % |
| COc1cc(F)c(-c2c(Cl)nc(CF)n2-c2ccc(F)cc2)c(F)c1 [Compound 331, 4-chloro-5-(2,6-difluoro-4-methoxyphenyl)-2-(fluoromethyl)-1-(4-fluorophenyl)-1H-imidazole] | – | – | – | – | – | – | – | – | – | – | – | – | – | pest or weed control at 200 ppm (Septoria nodorum; [4]): 99%; pest or weed control at 200 ppm (Alternaria solani; [4]): 100%; pest or weed control at 200 ppm (Septoria tritici; [4]): 95%; pest or weed control at 200 ppm [1, 4]: 100%; pest or weed control at 200 ppm (Botrytis cinerea; [4]): 100%; pest or weed control at 200 ppm [2, 4]: 85%; pest or weed control at 200 ppm [3, 4]: 100% |
| Fc1ccc(F)c(-c2c(Cl)nc(Br)n2Cc2ccc(Cl)cc2)c1F [compound 286] | – | – | – | – | – | – | – | – | – | – | – | – | – | Test F disease control rating (Septoria nodorum; 200 ppm, 0 = no control): 79%; Test D disease control rating (Alternaria solani; 200 ppm, 0 = no control): 96%; Test G disease control rating (Septoria tritici; 200 ppm, 0 = no control): 95%; Test I disease control rating ([1]; 200 ppm, 0 = no control): 99%; Test C disease control rating (Botrytis cinerea; 200 ppm, 0 = no control): 99%; Test H disease control rating ([2]; 200 ppm, 0 = no control): 64%; Test J disease control rating ([3]; 200 ppm, 0 = no control): 100% |
| COc1cc(F)c(-c2c(-c3ccc(I)cc3)c(OC)nn2C)c(F)c1 [compound 431] | – | – | – | – | – | – | 0 | 0 | 9 | 98 | 0 | 9 | 9 | – |
| COc1ccc(F)c(-c2c(Cl)nc(C)n2-c2ccc(C)c(F)c2)c1F [compound 590] | 94* % | 100* % | 96* % | 100* % | 100* % | 7* % | – | – | – | – | – | – | – | Test J disease control rating ([3]; 40 ppm (marked *)): 100* % |
| COc1cc(F)c(-n2c(C)nc(Cl)c2-c2ccc(Cl)cc2)c(F)c1 [compound 423] | – | – | – | – | – | – | – | – | – | – | – | – | – | Test F disease control rating (Septoria nodorum; [5]): 69* %; Test D disease control rating (Alternaria solani; [5]): 0* %; Test G disease control rating (Septoria tritici; [5]): 94* %; Test I disease control rating [1, 5]: 91* %; Test C disease control rating (Botrytis cinerea; [5]): 100* %; Test H disease control rating [2, 5]: 0* %; Test J disease control rating [3, 5]: 99* % |
| COc1ccc(F)c(-c2c(Cl)nc(Cl)n2-c2cccc(OC(F)F)c2)c1F [compound 400] | – | – | – | – | – | – | 100 | 99 | 100 | 94 | 99 | 100 | 0 | – |
| COc1ccc(-n2c(Cl)nc(Cl)c2-c2c(F)cccc2F)cn1 [compound 621] | – | – | – | – | – | – | 100 | 99 | 100 | 98 | 100 | 100 | 100 | – |
| COc1cc(F)c(-c2c(Cl)nc(Cl)n2-c2ccc(NC(C)=O)nc2)c(F)c1 [compound 673] | – | – | – | – | – | – | 90 | 99 | 100 | 99 | 100 | 99 | 9 | – |
| COc1ccc(F)c(-c2c(Cl)nc(Br)n2-c2ccc(F)cc2)c1F [compound 314] | – | – | – | – | – | – | 100 | 100 | 100 | 93 | 100 | 99 | 32 | – |
| COc1cc(F)c(-c2c(C)nc(Br)n2-c2ccc(OC)nc2)c(F)c1 [compound 736] | – | – | – | – | – | – | 100 | 97 | 100 | 100 | 100 | 99 | 99 | – |
| COc1cc(F)c(-c2c(Cl)nc(Cl)n2-c2cccc(OC(F)F)c2)c(F)c1 [compound 565] | – | – | – | – | – | – | 100 | 100 | 100 | 96 | 100 | 100 | 97 | – |
| COc1cc(F)c(-c2c(Cl)nc(Cl)n2-c2ccc(C)c(Cl)c2)c(F)c1 [compound 502] | 60* % | 92* % | 93* % | 98* % | 90* % | 0* % | – | – | – | – | – | – | – | Test J disease control rating ([3]; 40 ppm (marked *)): 100* % |
| CCOc1cc(F)c(-c2c(Cl)ncn2-c2ccc(C)cc2)c(F)c1 [compound 723] | – | – | – | – | – | – | 95 | 0 | 99 | 97 | 68 | 100 | 66 | – |
| COCc1nc(Cl)n(-c2c(F)cccc2F)c1-c1ccc(Cl)cc1 [compound 467] | 0* % | 0* % | 32* % | 71* % | 94* % | 0* % | – | – | – | – | – | – | – | Test J disease control rating ([3]; 40 ppm (marked *)): 96* % |
| N#Cc1ccc(F)c(-c2c(Cl)ncn2-c2ccc(Cl)cc2)c1F [Compound 386, 3-[4-chloro-1-(4-chlorophenyl)-1H-imidazol-5-yl]-2,4-difluorobenzonitrile] | – | – | – | – | – | – | – | – | – | – | – | – | – | pest or weed control at 200 ppm (Septoria nodorum; [4]): 0%; pest or weed control at 200 ppm (Alternaria solani; [4]): 100%; pest or weed control at 200 ppm (Septoria tritici; [4]): 96%; pest or weed control at 200 ppm [1, 4]: 98%; pest or weed control at 200 ppm (Botrytis cinerea; [4]): 99%; pest or weed control at 200 ppm [2, 4]: 0%; pest or weed control at 200 ppm [3, 4]: 95% |
| Fc1cc(F)c(-c2c(Cl)nc(Cl)n2-c2cccc(OC(F)(F)F)c2)c(F)c1 [compound 599] | – | – | – | – | – | – | 0 | 0 | 0 | 9 | 0 | 26 | 0 | – |
| COc1cc(F)c(-c2c(C)nc(C)n2-c2ccc(C)cc2)c(F)c1 [compound 521] | 0* % | 99* % | 98* % | 98* % | 99* % | 0* % | – | – | – | – | – | – | – | Test J disease control rating ([3]; 40 ppm (marked *)): 90* % |
| Fc1cc(-n2c(Cl)nc(Cl)c2-c2c(F)cncc2F)ccc1Cl [compound 593] | – | – | – | – | – | – | 100 | 99 | 100 | 96 | 100 | 100 | 99 | – |
| COc1cc(F)c(-c2c(Cl)nc(C)n2-c2ccc(C)c(Cl)c2)c(F)c1 [compound 601] | 87* % | 98* % | 99* % | 97* % | 99* % | 7* % | – | – | – | – | – | – | – | Test J disease control rating ([3]; 40 ppm (marked *)): 97* % |
| COc1cc(F)c(-c2cnc(Cl)n2-c2ccc(C(F)(F)F)nc2)c(F)c1 [compound 699] | – | – | – | – | – | – | 99 | 0 | 99 | 99 | 41 | 100 | 0 | – |
